According to publication PMC11728000, “Antitumor Activity and Multi-Target Mechanism of Phenolic Schiff Bases Bearing Methanesulfonamide Fragments: Cell Cycle Analysis and a Molecular Modeling Study” (International Journal of Molecular Sciences, 2024):

Assays:
[1] = test system: HOP-92; experiment: NCI anticancer screening (SRB), Non-Small Cell Lung Cancer subpanel; type: cell-based, human; details: 10.0 µM in one dose
[2] = test system: MALME-3M; experiment: NCI anticancer screening (SRB), Melanoma subpanel; type: cell-based, human; details: 10.0 µM in one dose
[3] = test system: UO-31; experiment: NCI anticancer screening (SRB), Renal Cancer subpanel; type: cell-based, human; details: 10.0 µM in one dose
[4] = test system: Leukemia subpanel tumor cell lines; experiment: NCI anticancer screening, subpanel summary; type: cell-based; details: leukemia; 10 µM, joint for compounds named together
[5] = test system: NSC Lung Cancer subpanel tumor cell lines; experiment: NCI anticancer screening, subpanel summary; type: cell-based; details: non-small cell lung; 10 µM, joint for compounds named together
[6] = test system: Breast Cancer subpanel tumor cell lines; experiment: NCI anticancer screening, subpanel summary; type: cell-based; details: breast; 10 µM, joint for compounds named together
[7] = test system: 59 human cancer cell lines; experiment: NCI anticancer screening, full panel summary; details: 10 µM single dose; for PCE (positive cytotoxic effect): ratio of cell lines with growth inhibition > 10% to total cell lines; for MG% (mean growth percent): mean over 59 cell lines
[8] = test system: UACC-257; experiment: NCI anticancer screening (SRB), Melanoma subpanel; type: cell-based, human; details: 10.0 µM in one dose
[9] = test system: A498; experiment: NCI anticancer screening (SRB), Renal Cancer subpanel; type: cell-based, human; details: 10.0 µM in one dose
[10] = test system: CAKI-1; experiment: as above; type: cell-based, human; details: 10.0 µM in one dose
[11] = test system: SR; experiment: NCI anticancer screening (SRB), Leukemia subpanel; type: cell-based, human; details: 10.0 µM in one dose
[12] = test system: MCF-7; experiment: NCI anticancer screening (SRB), Breast Cancer subpanel; type: cell-based, human; details: 10.0 µM in one dose
[13] = test system: MOLT-4; experiment: NCI anticancer screening (SRB), Leukemia subpanel; type: cell-based, human; details: 10.0 µM in one dose
[14] = test system: RPMI-8226; experiment: NCI anticancer screening (SRB), Leukemia subpanel; type: cell-based, human; details: 10.0 µM in one dose
[15] = test system: EKVX; experiment: NCI anticancer screening (SRB), Non-Small Cell Lung Cancer subpanel; type: cell-based, human; details: 10.0 µM in one dose
[16] = test system: NCI-H226; experiment: as above; type: cell-based, human; details: 10.0 µM in one dose
[17] = test system: NCI-H23; experiment: as above; type: cell-based, human; details: 10.0 µM in one dose
[18] = test system: HCT-116; experiment: NCI anticancer screening (SRB), Colon Cancer subpanel; type: cell-based, human; details: 10.0 µM in one dose
[19] = test system: HCT-15; experiment: as above; type: cell-based, human; details: 10.0 µM in one dose
[20] = test system: HT29; experiment: as above; type: cell-based, human; details: 10.0 µM in one dose
[21] = test system: SF-295; experiment: NCI anticancer screening (SRB), CNS Cancer subpanel; type: cell-based, human; details: 10.0 µM in one dose
[22] = test system: SF-539; experiment: as above; type: cell-based, human; details: 10.0 µM in one dose
[23] = test system: U251; experiment: as above; type: cell-based, human; details: 10.0 µM in one dose
[24] = test system: LOX IMVI; experiment: NCI anticancer screening (SRB), Melanoma subpanel; type: cell-based, human; details: 10.0 µM in one dose
[25] = test system: SK-MEL-5; experiment: NCI anticancer screening (SRB), Melanoma subpanel; type: cell-based, human; details: 10.0 µM in one dose
[26] = test system: PC-3; experiment: NCI anticancer screening (SRB), Prostate Cancer subpanel; type: cell-based, human; details: 10.0 µM in one dose
[27] = test system: DU-145; experiment: as above; type: cell-based, human; details: 10.0 µM in one dose
[28] = test system: MDA-MB-231/ATCC; experiment: NCI anticancer screening (SRB), Breast Cancer subpanel; type: cell-based, human; details: 10.0 µM in one dose
[29] = test system: T-47D; experiment: as above; type: cell-based, human; details: 10.0 µM in one dose
[30] = test system: MDA-MB-468; experiment: as above; type: cell-based, human; details: 10.0 µM in one dose
[31] = test system: Ovarian Cancer subpanel tumor cell lines; experiment: NCI anticancer screening, subpanel summary; type: cell-based; details: ovarian; 10 µM, joint for compounds named together
[32] = in vitro; details: human
Experimental: the measured protein at the end of the drug treatment as compared to that at the beginning) indicating a net loss of cells following treatment was calculated from [(Ti − Tz)/Tz] […] = − 50.
Values were calculated for each of these three parameters if the activity level was reached; however, if the effect was not reached or exceeded, that parameter's value was expressed as more or less than the maximum or minimum concentration tested. The log GI50, log TGI, and log LC50 were then determined and defined as the mean of the logs of the individual GI50, TGI, and LC50 values. The lowest values are obtained with the most sensitive cell lines. The compound with log GI50 values −4 and <−4 was declared active.
2. In vitro cytotoxic activity towards normal fibroblast (WI-38) cells Cell Lines were obtained from the American Type Culture Collection; cells were cultured using DMEM (Invitrogen/Life Technologies) supplemented with 10% FBS (Hyclone), ten ug/ml of insulin (Sigma), and 1% penicillin–streptomycin. Cultures were removed from the incubator into a laminar flow hood, reconstituted with 3 mL of balanced salt solution without phenol red and serum, and then added to an amount equal to 10% of the culture medium volume. Cultures returned to the incubator for 2–4 h. After the incubation period, the resulting formazan crystals dissolved […]
medium volume. The absorbance was measured Spectrophotometrically at a wavelength of 570 […]
3. In vitro cyclooxygenase (COX-2) inhibition assay
The ability of the test compounds to inhibit COX-2 was determined using an enzyme immunoassay […]
manufacturer’s instructions.

[33] = test system: MCF-7 cells; experiment: Annexin V-FITC/PI apoptosis assay; type: cell-based, human; details: 24 h
[34] = test system: MCF-7 cells; experiment: Cell cycle analysis (PI flow cytometry); type: cell-based, human; details: 10 μM, 24 h
Experimental: Apoptosis is the primary mechanism by which potent chemotherapeutic agents destroy cancer cells. […] Flow cytometry measured cell growth in the G0-G1, S, and G2/M cell cycle phases.
Using the MCF-7 cell line, the cell cycle analysis was carried out like our previous investigation. A FACSCalibur flow cytometer was used to analyze the cells after they had been stained with DNA fluorochrome PI (Supplementary Materials). […]
photomultiplier voltage and for compensation setting adjustment to eliminate spectral overlap between the FL1 and the FL2 signals.
6. Cell cycle analysis
Breast carcinoma (MCF-7) cell was seeded at 2 × 10^5 cells/well density and incubated for 24 h in six-well plates. Foetal bovine serum (10%) was added, and the cells were incubated at 37 °C in an atmosphere of 5% CO2. The medium was replaced with 1% (v/v) DMSO containing 10.0 μM of […]
with 70% ethanol, rinsed with phosphate-buffered saline, and then stained with the DNA fluorochrome propidium iodide (PI) for 15 min at 37 °C. Then, samples were analyzed by flow cytometry using a FACSCalibur (Becton Dickinson). The cell cycle distributions were calculated using CellQuest software (Becton Dickinson). […]

CS(=O)(=O)Nc1ccc(C(=O)N/N=C/c2cccc(O)c2)cc1 [Compound 9]
GI% [1]: 23%
GI% [2]: 12%
GI% [3]: 17%
GI range in subpanel [4]: 10.0%
GI range in subpanel [5]: 23.0%
GI range in subpanel [6]: 11.0%
PCE (positive cytotoxic effect) [7]: 3/59

CS(=O)(=O)Nc1ccc(C(=O)N/N=C/c2ccc(O)cc2)cc1 [Compound 10]
GI% [8]: 10%
GI% [9]: 15%
GI% [10]: 10%
GI% [3]: 14%
GI range in subpanel [4]: 10.0%
GI range in subpanel [5]: 23.0%
GI range in subpanel [6]: 11.0%
PCE (positive cytotoxic effect) [7]: 4/59

COc1cc(/C=N/NC(=O)c2ccc(NS(C)(=O)=O)cc2)ccc1O [Compound 11]
GI% [11]: 10%
GI% [10]: 16%
GI% [3]: 10%
GI% [12]: 11%
GI range in subpanel [4]: 10.0%
GI range in subpanel [5]: 23.0%
GI range in subpanel [6]: 11.0%
PCE (positive cytotoxic effect) [7]: 4/59

Cc1ccc(NC(=O)c2ccc(CN3CCN(C)CC3)cc2)cc1Nc1nccc(-c2cccnc2)n1 [Imatinib, imatinib]
GI% [13]: 18%
GI% [14]: 13%
GI% [11]: 15%
GI% [15]: 16%
GI% [16]: 11%
GI% [17]: 17%
GI% [18]: 19%
GI% [19]: 12%
GI% [20]: 47%
GI% [21]: 15%
GI% [22]: 25%
GI% [23]: 11%
GI% [24]: 12%
GI% [25]: 22%
GI% [9]: 14%
GI% [26]: 11%
GI% [27]: 14%
GI% [28]: 11%
GI% [29]: 19%
GI% [30]: 29%
GI range in subpanel [31]: ≥ 10.0%
MG% (mean growth percent) [7]: 92.62%
MG% (mean growth percent) ([7]; listed as imatinib): 92.6%

CS(=O)(=O)CCNCc1ccc(-c2ccc3ncnc(Nc4ccc(OCc5cccc(F)c5)c(Cl)c4)c3c2)o1 [Lapatinib, lapatinib]
IC50 [32]: 32 µM

CN[C@@H]1C[C@H]2O[C@@](C)([C@@H]1OC)n1c3ccccc3c3c4c(c5c6ccccc6n2c5c31)C(=O)NC4 [Staurosporine, staurosporine]
Necrosis [33]: 4.04%
Total Apoptosis ([33]; annexin V-FITC/PI): 34.39%
Early Apoptosis ([33]; lower-right quadrant): 8.36%
Late Apoptosis ([33]; upper-right quadrant): 21.99%
%G0–G1 [34]: 65.74%
%G2-M [34]: 3.07%
%S [34]: 31.19%
Comment (cell cycle arrest phase) [34]: Growth arrest@G1/S
